These results are taken from patent US20100292262A1, “4 (PYRROLO[2,3-C]PYRIDINE-3-YL)PYRIMIDIN-2-AMINE DERIVATIVES” (Merck Patent Gesellschaft Mit Beschrankter Haftung, priority 2008, published 2010).

One data set has as its system A2780 (ovary) cells. In words: Inhibition of the proliferation/vitality of tumour cells (Alamar Blue test). Format: cell-based. To be noted: Homo sapiens, 96 h, 4 days cultivation with test substance in serum-containing medium, Alamar Blue readout. The procedure: In the present experiment description, the inhibition of tumour cell proliferation/tumour cell vitality by active ingredients is described. The cells are sown in a suitable cell density in microtitre plates (96-well format) and the test substances are added in the form of a concentration series. After four further days of cultivation in serum-containing medium, the tumour cell proliferation/tumour cell vitality can be determined by means of an Alamar Blue test system.
The cells are cultivated in medium. At intervals of several days, the cells are detached from the culture dishes with the aid of trypsin solution and sown in suitable dilution in fresh medium. The cells are cultivated at 37° Celsius and 10% CO2. […]
In each case, 20 μl of Alamar Blue reagent are added per well, and the microtitre plates are incubated, for example, for a further seven hours in a CO2 incubator (at 37° C. and 10% CO2). The plates are measured in a reader with a fluorescence filter at a wavelength of 540 nm. […]
The absorbance value of the medium control (no cells and test substances used) is subtracted from all other absorbance values. The controls (cells without test substance) are set equal to 100 percent, and all other absorbance values are set in relation thereto (for example in % of control):
IC50 values (50% inhibition) are determined with the aid of statistics programs, such as, for example, RS1.

What is called IC50 is the concentration needed to halve the response being measured. High values mean weaker potency, low ones greater potency. Consider `Nc1nccc(-c2c[nH]c3cnccc23)n1` [Compound A4, 4-(1H-pyrrolo[2,3-c]pyridin-3-yl)pyrimidin-2-ylamine], for which, in the data set on A2780 (ovary) cells, the IC50 is 10 to 1000 nM. As a reminder, the melting point is the temperature, or range, at which the solid turns liquid. As to `CCCCc1cc(-c2c[nH]c3cnccc23)nc(N)n1` [Compound A1, 4-butyl-6-(1H-pyrrolo[2,3-c]pyridin-3-yl)pyrimidin-2-ylamine], the melting point was 184 to 187 °C (dec.). `c1ccc(Nc2nccc(-c3c[nH]c4cnccc34)n2)cc1` [Compound A3, phenyl-[4-(1H-pyrrolo[2,3-c]pyridin-3-yl)pyrimidin-2-yl]-amine] yielded an IC50 in the data set with A2780 (ovary) cells of 10 to 1000 nM.
